Assay results: patent US20050004000A1, “Oral absorbed drugs” (priority 2001, published 2005)

Legend:
[1] = system: luteinizing hormone (LH) in circulating blood; assay: Effect of GnRH analogs on LH levels in blood of rats (RIA); type: in vivo, rat; design: LH 180 min: unit not given here
Description: The experiment was carried out with 55 female Wistar 8-week old rates, equally distributed into one of the eleven test groups as detailed in the following Table 3:
The compounds were administered either orally (PO) or intraperitoneally (IP) in a molar concentration of 0.4 nmol/rat (equivalent to 0.5 μg/rat of D-Lys^6-GnRH and to 0.6 μg/rat of Fms- or Fmoc-D-Lys^6-GnRH), or of 40 nmol/rat (equivalent in 50 μg/rat of D-Lys^6-GnRH and to 60 μg/rat of Fms- or Fmoc-D-Lys^6-GnRH), in 0.5 ml PBS. Ninety and 180 minutes after administration of the appropriate treatment, blood samples were collected (1 ml), the serum was separated, and the detection of LH levels was carried out by radioimmunoassay (RIA) as previously described (Rahimipour, S., et Al. J. Med. Chem. 2001, 44, 3645-3652).

[2] = system: acetylcholine-induced abdominal constriction; assay: Acetylcholine-induced abdominal constriction in mice (antinociceptive activity); type: in vivo
Text: The method used in the experiments herein for evaluating the antinociceptive properties of Fmoc-Met-enkephalin is a standard method for evaluating compounds having analgesic activity such as non-steroidal anti-inflammatory agents, opioids, and other analgesics, and consists in administering acetylcholine I.P. to mice, treating the mice with the test compound and evaluating the inhibition of abdominal constriction induced by the acetylcholine.
Thus, 120 healthy CD-1, Swiss derived, albino male mice (obtained from Charles River Breeding Labs, Wilmington, Mass.) were weighed, examined for health and equally distributed into one of the 12 test groups shown in Table 1.
SC administration was carried out with a standard syrine and needle and given in a volume of 10 ml per kg. Oral administration was performed using a standard curved oval gavage needle and given in a volume of 10 ml per kg. Thirty minutes after administration of the appropriate treatment, acetylcholine (5.5 mg/kg) was injected I.P. The mice were then placed in large plastic boxes and observed for the occurrence of a single abdominal constriction (defined as a wave of construction and elongation passing caudally along the abdominal wall, accompanied by a twisting of the trunk and followed by extension of the hind limbs). […] Acetylcholine-induced abdominal constriction was repeated again at approximately 120 minutes after test compound administration.
Observations included gross evaluation of the skin and fur, eyes and mucous membranes, respiratory, circulatory, autonomic and central nervous system, somatomotor activity and behavioral patterns. Particular attention was directed to observation of tremors, convulsions, salivation, diarrhea, sleep and coma. A non-parametric analysis of quantal data (Fisher exact test) was used to determine statistical significance of results.

Candida albicans = conditions: 20 IU; Agar-RPMI plates confluent with Candida albicans, 48 hr at 30° C.; cited from earlier work
[3] = 0.4 nmol/rat (0.5 or 0.6 μg/rat) IP
[4] = 0.4 nmol/rat (0.5 or 0.6 μg/rat) PO
[5] = 40 nmol/rat (50 or 60 μg/rat) PO

For “5-oxo-Pro-His-Trp-Ser-Tyr-(Fmoc)D-Lys-Leu-Arg-Pro-Gly-NH2 [Fmoc-D-Lys^6-GnRH]”, the “LH 90 min” value [1, 3] was 50 ng/mL, the “LH 180 min” value [1, 3] was 17 and the “LH 90 min” value [1, 4] was 0 ng/mL. The “LH 180 min” value [1, 4] was 0, the “LH 90 min” value [1, 5] was 0 ng/mL and the “LH 180 min” value [1, 5] was 0. For the same molecule, the “activity when administered IP” value [1] was “active”.

With “5-oxo-Pro-His-Trp-Ser-Tyr-(Fms)D-Lys-Leu-Arg-Pro-Gly-NH2 [Fms-D-Lys^6-GnRH]” the “LH 90 min” value [1, 3] was 80 ng/mL, the “LH 180 min” value [1, 3] was 25 and the “LH 90 min” value [1, 4] was 0.4 ng/mL. The “LH 180 min” value [1, 4] was 0, the “LH 90 min” value [1, 5] was 80 ng/mL and the “LH 180 min” value [1, 5] was 35. For the same molecule, the “activity when administered IP” value [1] was “active” and the “effect of oral administration on LH levels in the blood circulation” value ([1]; oral, 90 and 180 min after administration) was “elevation of the LH levels”.

With `C[C@H](NC(=O)OCC1c2ccccc2-c2ccccc21)C(=O)O` [Fmoc-Ala, reference compound] the “# mice abdominal construction” value ([2]; 25 mg/kg PO, 30 minutes) was 10/10, the “# mice abdominal construction” value ([2]; 25 mg/kg PO, 120 minutes) was 8/10 and the “% inhibition” value ([2]; 25 mg/kg PO, 120 minutes) was 20%. For the same molecule, the “# mice abdominal construction” value ([2]; 25 mg/kg SC, 30 minutes) was 10/10, the “# mice abdominal construction” value ([2]; 25 mg/kg SC, 120 minutes) was 10/10 and the “activity after SC or PO administration” value ([2]; Fmoc-Ala 25 mg/kg, Met-enkephalin 50 mg/kg, SC or PO) was “not active”. For the same molecule, the “antinociceptive activity in the mouse” value ([2]; comparable doses, SC or PO) was “neither Met-enkephalin nor Fmoc-Ala is active”.

In the case of `C[C@@H]1[C@H](O)[C@@H](C)/C=C/C=C/C=C/C=C/C=C/C=C/C=C/[C@H](O[C@@H]2O[C@H](C)[C@@H](O)[C@H](N)[C@@H]2O)C[C@@H]2O[C@](O)(C[C@@H](O)C[C@@H](O)[C@H](O)CC[C@@H](O)C[C@@H](O)CC(=O)O[C@H]1C)C[C@H](O)[C@H]2C(=O)O` [native Amphotericin B, Amphotericin B], the clear zone diameter (Candida albicans) is given as 1.5 cm.
